The source of these data is PMC3492951 (Journal of the American Chemical Society, 2011).

One data set deals with T1, G9a (Homo sapiens, UniProt Q96KQ7).
T1 sequence (Q96KQ7 1-1210): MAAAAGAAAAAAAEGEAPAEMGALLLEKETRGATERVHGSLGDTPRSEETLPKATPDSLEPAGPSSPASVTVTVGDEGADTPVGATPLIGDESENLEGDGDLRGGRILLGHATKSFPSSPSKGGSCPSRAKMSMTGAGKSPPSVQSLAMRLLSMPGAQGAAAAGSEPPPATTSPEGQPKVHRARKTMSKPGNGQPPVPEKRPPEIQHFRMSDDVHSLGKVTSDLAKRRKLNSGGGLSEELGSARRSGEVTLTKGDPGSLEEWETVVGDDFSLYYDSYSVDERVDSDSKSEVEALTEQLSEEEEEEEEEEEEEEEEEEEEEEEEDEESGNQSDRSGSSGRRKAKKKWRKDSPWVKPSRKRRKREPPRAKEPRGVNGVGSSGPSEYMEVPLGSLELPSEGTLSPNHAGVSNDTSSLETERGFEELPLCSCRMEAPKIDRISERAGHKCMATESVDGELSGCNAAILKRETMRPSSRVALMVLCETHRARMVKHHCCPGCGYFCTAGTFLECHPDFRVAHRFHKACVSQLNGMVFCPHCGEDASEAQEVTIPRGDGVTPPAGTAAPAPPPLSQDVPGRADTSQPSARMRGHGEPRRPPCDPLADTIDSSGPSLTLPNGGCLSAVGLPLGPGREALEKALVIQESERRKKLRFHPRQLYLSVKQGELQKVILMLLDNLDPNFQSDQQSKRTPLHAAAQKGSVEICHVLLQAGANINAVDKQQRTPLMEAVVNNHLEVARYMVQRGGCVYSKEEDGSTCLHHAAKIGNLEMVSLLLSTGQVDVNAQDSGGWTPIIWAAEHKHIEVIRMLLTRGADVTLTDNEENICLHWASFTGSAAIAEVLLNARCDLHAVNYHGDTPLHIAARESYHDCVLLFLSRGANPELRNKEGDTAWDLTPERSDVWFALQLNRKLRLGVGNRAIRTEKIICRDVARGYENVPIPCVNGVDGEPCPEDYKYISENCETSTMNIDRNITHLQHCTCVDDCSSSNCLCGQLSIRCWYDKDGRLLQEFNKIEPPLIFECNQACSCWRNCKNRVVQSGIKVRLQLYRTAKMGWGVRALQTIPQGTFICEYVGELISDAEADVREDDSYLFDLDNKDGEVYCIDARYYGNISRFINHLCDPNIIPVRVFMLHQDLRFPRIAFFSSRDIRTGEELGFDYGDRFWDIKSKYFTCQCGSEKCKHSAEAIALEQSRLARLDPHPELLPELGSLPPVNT
Briefly: G9a enzyme inhibition. The class given is biochemical.

A further data set deals with PRMT1 (Homo sapiens, UniProt Q99873). Briefly: PRMT1 enzyme inhibition. The data set is classed as biochemical. Particulars: read-out: Ki PRMT1; competitive inhibitors.
Chain of PRMT1 (Q99873 whole entry, species assumed): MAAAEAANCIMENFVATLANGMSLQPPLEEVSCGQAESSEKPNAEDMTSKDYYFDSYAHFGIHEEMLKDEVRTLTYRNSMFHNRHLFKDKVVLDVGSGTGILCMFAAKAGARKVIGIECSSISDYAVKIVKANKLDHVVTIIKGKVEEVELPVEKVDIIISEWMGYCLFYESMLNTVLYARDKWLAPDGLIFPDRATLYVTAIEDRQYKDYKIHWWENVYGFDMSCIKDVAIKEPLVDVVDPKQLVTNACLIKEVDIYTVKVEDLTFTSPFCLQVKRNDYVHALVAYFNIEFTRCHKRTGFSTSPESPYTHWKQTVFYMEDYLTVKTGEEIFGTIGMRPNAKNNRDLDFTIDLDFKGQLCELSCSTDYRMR
For data set [1], the target named is T2, CARM1 (also known as PRMT4) (Homo sapiens, UniProt Q86X55).
T2 sequence (Q86X55 1-608): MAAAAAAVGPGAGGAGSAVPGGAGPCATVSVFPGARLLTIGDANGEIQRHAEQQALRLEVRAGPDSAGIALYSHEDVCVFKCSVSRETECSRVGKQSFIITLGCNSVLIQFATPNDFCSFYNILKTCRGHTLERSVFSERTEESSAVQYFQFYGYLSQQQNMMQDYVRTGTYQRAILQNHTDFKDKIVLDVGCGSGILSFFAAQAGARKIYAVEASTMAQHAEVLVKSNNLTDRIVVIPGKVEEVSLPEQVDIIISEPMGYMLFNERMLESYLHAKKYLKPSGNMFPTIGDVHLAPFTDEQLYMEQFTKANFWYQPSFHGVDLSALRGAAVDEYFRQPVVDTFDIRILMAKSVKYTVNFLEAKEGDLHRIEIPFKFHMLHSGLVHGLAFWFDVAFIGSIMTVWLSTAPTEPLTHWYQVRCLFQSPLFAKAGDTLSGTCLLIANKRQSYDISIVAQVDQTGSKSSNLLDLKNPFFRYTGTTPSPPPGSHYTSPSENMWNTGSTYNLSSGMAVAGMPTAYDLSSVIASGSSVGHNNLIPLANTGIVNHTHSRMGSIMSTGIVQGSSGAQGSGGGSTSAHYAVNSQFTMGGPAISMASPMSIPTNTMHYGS
Briefly: CARM1 enzyme inhibition. The data set is classed as biochemical. Conditions: read-out: Ki CARM1; competitive inhibitors.

A further data set has as its system SAH hydrolase. Conditions: in cells / in vivo; cited from earlier work.

Turning to `N[C@@H](CCSC[C@H]1O[C@@H](n2cnc3c(NCc4ccccc4)ncnc32)[C@H](O)[C@@H]1O)C(=O)O` [Compound 2, N6-benzyl-SAH], the “activity on G9a” value at G9a was “inactive”. The Ki at G9a (read-out: Ki G9a, competitive inhibitors) is greater than 100 µM; on PRMT1 it was 21.2 µM; in data set [1], 18 µM.
With `Nc1ncnc2c1ncn2[C@@H]1O[C@H](CSCC[C@H](N)C(=O)O)[C@@H](O)[C@H]1O` [SAH, S-(5'-adenosyl)-L-homocysteine], in the data set on SAH hydrolase, the “degradation to adenosine and homocysteine by SAH hydrolase” value was “quickly degraded”.

Broadly, the Ki is the dissociation constant of the complex between target and ligand, obtained from inhibition or displacement.
